Assay results as given in patent US7223759B2, “Antibacterial 3,5-diaminopiperidine-substituted aromatic and heteroaromatic compounds” (Anadys Pharmaceuticals, Inc., priority 2003, dated 2007).

Tested on: Escherichia coli (ATCC25922) or Staphylococcus aureus (ATCC25923)
Assay: Antibacterial MIC, microdilution method in Mueller-Hinton medium
Type: cell-based
Conditions: Escherichia coli, 18 h, MIC in E. coli or S. aureus; two-fold serial dilutions 64 to 0.5 μg/ml in duplicate; 18 hours of incubation at 35° C.; read-out: Potency (MIC)
Outline: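 Two-fold serial dilutions from 64 to 0.5 μg/ml, in duplicate, by broth microdilution in Mueller-Hinton medium (NCCLS M7-A5). MIC taken as the lowest concentration preventing visible growth after 18 h at 35° C.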

MIC	Compound
> 64 µg/mL	CCOC(=O)c1ccc(Nc2nc(N3C[C@H](N)C[C@H](N)C3)nc(N3C[C@H](N)C[C@H](N)C3)n2)cc1 [4-[4,6-Bis-((3R,5S)-3,5-diamino-piperidin-1-yl)-[1,3,5]triazin-2-ylamino]-benzoic acid ethyl ester]
< 64 µg/mL	N[C@@H]1C[C@H](N)CN(c2nc(Nc3ccc(NC(=O)c4ccc5ccccc5c4)c(O)c3)nc(N3C[C@H](N)C[C@H](N)C3)n2)C1 [N-{3-hydroxy-4-[(naphthalene-2-carbonyl)-amino]-phenyl}-4,6-Bis-((3R,5S)-3,5-diamino-piperidin-1-yl)-[1,3,5]triazine-2-amine]
> 64 µg/mL	Cc1ccc(C(=O)Nc2ccc(Nc3nc(N4CCCCC4)nc(N4CCCC4)n3)cc2O)cc1.Cl [drawing 244, N-{4-[4-((3R,5S)-3,5-Diamino-piperidin-1-yl)-6-((3R,4S)-3,4-dihydrooxy-pyrrolidin-1-yl)-[1,3,5]triazin-2-ylamino]-2-hydroxy-phenyl}-4-methyl-benzamide]
> 64 µg/mL	C#Cc1cccc(Nc2nc(N3CCCCC3)nc(N3CCCCC3)n2)c1.Cl [N-(3-ethylnyl-phenyl)-4,6-Bis-((3R,5S)-3,5-diamino-piperidin-1-yl)-[1,3,5]triazine-2-amine]
< 64 µg/mL	COc1cc(NC(=O)c2ccc(Nc3nc(N4CCCCC4)nc(N4CCCCC4)n3)cc2O)cc(OC)c1OC.Cl [N-[3-hydroxy-4-(3,4,5-trimethoxy-phenylcarbamoyl)-phenyl]-4,,6-Bis-((3R,5S)-33,5-diamino-piperidin-1-yl)-[1,3,5]triazine-2-amine]
> 64 µg/mL	O=C(Nc1ccccc1)c1ccccc1Nc1nc(N2CCCCC2)nc(N2CCCCC2)n1 [N-(2-phenylcarbamoyl-phenyl)-44,6-Bis-((3R,5S)-3,5-diamino-piperidin-1-yl)-[1,3,5]triazine-2-amine]
< 16 µg/mL	COc1nc(Nc2ccc(C(=O)Oc3ccccc3)c(O)c2)nc(N2CCCCC2)n1.Cl [4-[4-((3R,5S)-3,5-Diamino-piperidin-1-yl)-6-methoxy-[1,3,5]triazin-2-ylamino]-2-hydroxy-benzoic acidphenylester]
> 64 µg/mL	Cc1cc(Nc2nc(N3C[C@H](N)C[C@H](N)C3)nc(N3C[C@H](N)C[C@H](N)C3)n2)no1.Cl [N-(5-methyl-isoxazol-3-yl)-4,6-Bis-((3R,5S)-3,5-diamino-piperidin-1-yl)-[1,3,5]triazine-2-amine]
> 64 µg/mL	N[C@@H]1CC(c2nc(NC3CCNCC3)nc(N3C[C@H](N)C[C@H](N)C3)n2)C[C@H](N)C1 (stereo partly drawn) [N-piperidin-4-yl-4,6-Biss-((3R,5S)-3,5-diamino-piperidin-1-yl)-[1,3,5]triazine-2-amine]

Same assay, conditions: Escherichia coli, 18 h, read-out: Potency (MIC)

Compound	MIC
N[C@@H]1C[C@H](N)CN(c2nc(Nc3ccc(NC(=O)c4ncccc4O)cc3)nc(N3C[C@H](N)C[C@H](N)C3)n2)C1 [N-{4-[(3-hydroxy-pyridine-2-carbonyl)-amino]-phenyl}-4,6-Bis-((3R,5S)-3,5-diamino-piperidin-1-yl)-[1,3,5]triazine-2-amine]	< 64 µg/mL
N[C@@H]1C[C@H](N)CN(c2nc(Nc3ccc(NC(=O)c4ccc(Cl)cc4)c(O)c3)nc(N3CCC(N4CCCC4)CC3)n2)C1 [4-Chloro-N-{4-[4-((3S,5R)-3,5-diamino-piperidin-1-yl)-6-(4-pyrrolidin-1-yl-piperidin-1-yl)-[1,3,5]triazin-2-ylamino]-2-hydroxy-phenyl}-benzamide]	< 64 µg/mL
N[C@@H]1C[C@H](N)CN(c2nc(Nc3ccc(NC(=O)c4cc(Br)ccc4O)c(O)c3)nc(N3C[C@H](N)C[C@H](N)C3)n2)C1 [N-[4-(5-bromo-2-hydroxy-benzoylamino)-3-hydroxy-phenyl]-4,6-Bis-((3R,5S)-3,5-diamino-piperidin-1-yl)-[1,3,5]triazine-2-amine]	< 16 µg/mL
CC(C)CCCCCC(=O)Nc1ccc(S(=O)(=O)Nc2ccc(Nc3nc(N4C[C@H](N)C[C@H](N)C4)nc(N4C[C@H](N)C[C@H](N)C4)n3)cc2O)cc1 [N-{3-hydroxy-4-[4-(7-methyl-octanoylamino)-benzenesulfonylamino]-phenyl}-4,6-Bis-((3R,5S)-3,5-diamino-piperidin-1-yl)-[1,3,5]triazine-2-amine]	< 16 µg/mL
N[C@@H]1C[C@H](N)CN(c2nc(Nc3ccc(NC(=O)c4cccc(O)c4O)cc3)nc(N3C[C@H](N)C[C@H](N)C3)n2)C1 [N-[4-(2,3-dihydroxy-benzoylamino)-phenyl]-4,6-Bis-((3R,5S)-3,5-diamino-piperidin-1-yl)-[1,3,5]triazine-2-amine]	< 16 µg/mL
NCCN(CCN)c1nc(Nc2ccc3c(c2)-c2ccccc2C3=O)nc(N2C[C@H](N)C[C@H](N)C2)n1 [3-[4-[Bis(2-amino-ethyl)-amino]-6-((3R,5S)-3,5-diamino-piperidin-1-yl)-[1,3,5]triazin-2-ylamino]-fluoren-9-one]	> 64 µg/mL
Cc1ccc(C(=O)Nc2ccc(Nc3nc(N4C[C@H](N)C[C@H](N)C4)nc(N4C[C@H](N)C[C@H](N)C4)n3)cc2)c(O)c1 [N-[4-(2-hydroxy-4-methyl-benzoylamino)-phenyl]-4,6-Bis-((3R,5S)-3,5-diamino-piperidin-1-yl)-[1,3,5]triazine-2-amine]	< 16 µg/mL
N[C@@H]1C[C@H](N)CN(c2nc(Nc3ccc(C(=O)Nc4ccc(Cl)c(Cl)c4)c(O)c3)nc(N3C[C@H](N)C[C@H](N)C3)n2)C1 [N-[4-(3,4-dichloro-phenylcarbamoyl)-3-hydroxy-phenyl]-4,6-Bis-((3R,5S)-3,5-diamino-piperidin-1-yl)-[1,3,5]triazine-2-amine]	< 16 µg/mL
Cc1ccc(S(=O)(=O)N(Cc2ccccc2)c2ccc(Nc3nc(N(CCN)CCN)nc(N4C[C@H](N)C[C@H](N)C4)n3)c(O)c2)cc1 [N-Benzyl-N-{4-[4-[bis-(2-amino-ethyl)-amino]-6-((3R,5S)-3,5-diamino-piperidin-1-yl)-[1,3,5]triazin-2-ylamino]-3-hydroxy-phenyl}-4-methyl-benzenesulfonamide]	< 64 µg/mL
N[C@@H]1C[C@H](N)CN(c2nc(Nc3ccc([N+](=O)[O-])cc3)nc(N3C[C@H](N)C[C@H](N)C3)n2)C1 [N-(4-nitro-phenyl)-4,6-Bis-((3R,5S)-3,5-diamino-piperidin-1-yl)-[1,3,5]triazine-2-amine]	< 64 µg/mL
Cc1ccc(S(=O)(=O)N(Cc2ccccc2)c2ccc(Nc3nc(N4C[C@H](N)C[C@H](N)C4)nc(N4C[C@H](O)C[C@@H](O)C4)n3)cc2O)cc1 [N-Benzyl-N-{4-[4-((3R,5S)-3,5-diamino-piperidin-1-yl)-6-((3R,5R)-3,5-dihydroxy-piperidin-1-yl)-[1,3,5]triazin-2-ylamino]-2-hydroxy-phenyl}-4-methyl-benzenesulfonamide]	< 64 µg/mL
N[C@@H]1C[C@H](N)CN(c2nc(Nc3cccc([N+](=O)[O-])c3)nc(N3C[C@H](N)C[C@H](N)C3)n2)C1 [N-(3-nitro-phenyl)-4,6-Bis-((3R,5S)-3,5-diamino-piperidin-1-yl)-[1,3,5]triazine-2-amine]	> 64 µg/mL
N[C@@H]1C[C@H](N)CN(c2nc(N3C[C@H](N)C[C@H](N)C3)nc(-n3ccc4cc(Br)ccc43)n2)C1 [5-Bromo-1-(4,6-Bis-((3R,5S)-3,5-diamino-piperidin-1-yl)-[1,3,5]triazain-2-yl)-1H-indole]	< 64 µg/mL
N[C@@H]1C[C@H](N)CN(c2nc(Nc3ccc4ccccc4c3)nc(N3C[C@H](N)C[C@H](N)C3)n2)C1 [N-naphthalene-2-yl-4,6-Bis-((3R,5S)-3,5-diamino-piperidin-1-yl)-[1,3,5]triazine-2-amine]	< 64 µg/mL
NCCNc1nc(Nc2ccc(NC(=O)c3ccc4ccccc4c3O)cc2)nc(N2C[C@H](N)C[C@H](N)C2)n1 [1-Hydroxy-naphthalene-2-carboxylicacid {4-[4-(2-amino-ethylamino)-6-((3R,5S)-3,5-diamino-piperidin-1-yl)-[1,3,5]triazin-2-ylamino]-phenyl}-amide]	< 16 µg/mL
N[C@@H]1C[C@H](N)CN(c2nc(Nc3ccc(NC(=O)c4ccc(Cl)cc4O)c(F)c3)nc(N3C[C@H](N)C[C@H](N)C3)n2)C1 [N-[4-(4-chloro-2-hydroxy-benzoylamino)-3-fluoro-phenyl]-4,6-Bis-((3R,5S)-3,5-diamino-piperidin-1-yl)-[1,3,5]triazine-2-amine]	< 16 µg/mL
N[C@@H]1C[C@H](N)CN(c2nc(Nc3ccc(C(=O)CC(=O)Nc4ccccc4Cl)cc3)nc(N3C[C@@H](N)C[C@H]3CO)n2)C1 [3-{4-[4-((2S,4S)-4-Amino-2-hydroxymethyl-pyrrolidin-1-yl)-6-((3R,5S)-3,5-diamino-piperidin-1-yl)-[1,3,5]triazin-2-ylamino]-phenyl}-N-(2-chloro-phenyl)-3-oxo-propionamide]	< 64 µg/mL
N[C@@H]1C[C@H](N)CN(c2nc(Nc3ccc(NC(=O)c4ccccc4)c(O)c3)nc(N3C[C@H](N)C[C@H](N)C3)n2)C1 [N-(4-benzoylamino-3-hydroxy-phenyl)-4,6-Bis-((3R,5S)-3,5-diamino-piperidin-1-yl)-[1,3,5]triazine-2-amine]	< 16 µg/mL
N[C@@H]1C[C@H](N)CN(c2nc(Nc3ccc(C(=O)Nc4ccc(S(=O)(=O)Nc5ccc6cn[nH]c6c5)cc4)c(O)c3)nc(N3C[C@H](N)C[C@H](N)C3)n2)C1 [N-(3-hydroxy-4-[4-(1H-indazol-6-ylsulfamoyl)-phenylcarbamoyl]-phenyl)-4,6-Bis-((3R,5S)-3,5-diamino-piperidin-1-yl)-[1,3,5]triazine-2-amine]	< 64 µg/mL
NC[C@@H]1C[C@@H](O)CN1c1nc(Nc2ccc(C(=O)CC(=O)Nc3ccccc3Cl)cc2)nc(N2C[C@H](N)C[C@H](N)C2)n1 [3-{4-[4-((2S,4R)-2-Aminomethyl-4-hydroxy-pyrrolidin-1-yl)-6-((3R,5S)-3,5-diamino-piperidin-1-yl)-[1,3,5]triazin-2-ylamino]-phenyl}-N-(2-chloro-phenyl)-3-oxo-propionamide]	< 64 µg/mL
COc1cccc(OC)c1CNc1nc(N2C[C@H](N)C[C@H](N)C2)nc(N2C[C@H](N)C[C@H](N)C2)n1 [N-(2,6-dimethoxy-benzyl)-4,6-Bis-((3R,5S)-3,5-diamino-piperidin-1-yl)-[1,3,5]triazine-2-amine]	> 64 µg/mL
